This is an account of results in patent US4835185A, “Immunomodulator for improving commercial performance of domestic animals” (Iowa State University Research Foundation, Inc., priority 1987, dated 1989).

For one data set, the system named is Plasma Cortisol. Briefly: Feedlot steers: plasma cortisol. In kind it is in vivo, steers (cattle). The following applies: 150 days. The source says:
Seventy-two medium-frame steers, with an average weight of 578 lbs., were allotted to 12 pens of 6 animals each. A common basal diet was fed ad libitum to all cattle. This consisted of 48.9% cracked corn, 24.4% ground corn cobs, 17.8% expeller Soybean meal, 7.0% molasses (liquid), 1.3% limestone, 0.25% dicalcium phosphate, 2% salt, 0.02% trace mineral premix, and 0.1% vitamin A premix for the first 58 days of the experiment, and was changed to 54.3% cracked corn and 12.8% expeller soybean meal for the remaining 103 days of the experiment. Three pens were assigned to each treatment. The treatments consisted of four levels of Ca-KIC in a pelleted supplement: 0%, 0.02%, 0.07%, and 0.20% of the basal diet (0.05% control pellets, 0.04% KIC pellets, 0.14% KIC pellets, and 0.40% KIC pellets). The pellets were preweighted and top-dressed on the basal diet twice daily. After 58 days, the cattle on the 0.20% KIC were removed from the experiment. The cattle were not implanted with a growth promotant nor were ionophores included in the diet. […] Loin eye area and fat thickness over the loin were measured on each carcass. […]
KIC was obtained from SOBAC, Paris, France. Zein was purchased from Freeman Industries, Tuckahoe, N.Y. Each experiment was statistically analyzed by analysis of variance with three pens per treatment. […]

The subject of the next data set is neutrophils. The experiment in a line: Neutrophil function (experiments 1 to 3). The following applies: any experiment. In kind it is cell-based, sheep and cattle. On the procedure:
A study was conducted to determine if KIC administration can alter white blood cell function, specifically T lymphocyte function, in growing sheep and cattle. Eighteen medium-framed crossbred male lambs were used in experiment 1. Lambs were randomly assigned to either a control diet (n=10) or a diet supplemented with 1% KIC (n=8). Animals were fed ad libitum in individual cages. At 100 and 108 days of treatment, 50-ml blood samples were collected for lymphocyte and neutrophil function tests. In experiment 2, 19 intact crossbred male lambs were randomly assigned to either a saline treatment group (n=9) or a KIC treatment group (n=10). Control lambs were injected with 50 ml of a saline solution, and KIC treated lambs were injected with 50 ml of a 5% solution of KIC (sodium salt) daily (~2.5 g KIC/day). All injections were made intraperitoneally in the right posterior abdominal region after disinfection of the area. […] At the end of the 6-233k periods, 100-ml blood samples were collected from each animal, and lymphocyte and neutrophil function were evaluated. […] Lymphocytes and neutrophils were isolated, and lymphocyte blastogenesis and neutrophil function evaluated. […] Each experiment was statistically analyzed by analysis of variance. In sheep experiments, individual animals were the experimental units, whereas pen means were analyzed in the cattle experiment.

A further data set concerns white blood cells. Briefly: White blood cell number and differential, sheep (experiments 1 and 2). The format is in vivo, lambs (sheep). On the procedure: A study was conducted to determine if KIC administration can alter white blood cell function, specifically T lymphocyte function, in growing sheep and cattle. Eighteen medium-framed crossbred male lambs were used in experiment 1. Lambs were randomly assigned to either a control diet (n=10) or a diet supplemented with 1% KIC (n=8). Animals were fed ad libitum in individual cages. At 100 and 108 days of treatment, 50-ml blood samples were collected for lymphocyte and neutrophil function tests.
In experiment 2, 19 intact crossbred male lambs were randomly assigned to either a saline treatment group (n=9) or a KIC treatment group (n=10). Control lambs were injected with 50 ml of a saline solution, and KIC treated lambs were injected with 50 ml of a 5% solution of KIC (sodium salt) daily (~2.5 g KIC/day). All injections were made intraperitoneally in the right posterior abdominal region after disinfection of the area. At day 60 and day 66 of treatment, blood was collected for lymphocyte and neutrophil function tests.
Sheep in experiments 1 and 2 were fed diets based on a mixture of 48% corn, 5% molasses, 20% alfalfa meal, 0.8% limestone, 0.6% salt-mineral-vitamin mix and ~25% of a protein supplement (either soybean meal, corn gluten meal, or corn gluten feed). The diets were isonitrogenous and analyzed to be ~20% crude protein and 89% dry matter. The KIC diet consisted of the basal diet to which was added 1% calcium-KIC, whereas the control diet was the basal diet plus 0.25% calcium carbonate.
Blood was collected by jugular venapuncture into acid-citrate-dextrose anticoagulant. Lymphocytes and neutrophils were isolated, and lymphocyte blastogenesis and neutrophil function evaluated. KIC was obtained from SOBAC, Paris, France. Zein was purchased from Freeman Industries, Tuckahoe, NY. Each experiment was statistically analyzed by analysis of variance. In sheep experiments, individual animals were the experimental units, whereas pen means were analyzed in the cattle experiment.
^2 Total white blood cell number (WBC) is the cells per mm^3.

Regarding `CC(C)CC(=O)C(=O)O` [KIC, alpha-ketoisocaproate], the figures for the Plasma Cortisol in the data set with Plasma Cortisol (.02% dietary KIC (0%: 4.08)) and with Plasma Cortisol (.07% dietary KIC (0%: 4.08)) were 3.74 µg/dL and 3.2 µg/dL, respectively. Also, the antibody-dependent cell-mediated cytotoxicity entry in the data set with neutrophils was “did not alter”. For the same compound, the “% SEG” value in the data set on white blood cells (Exp. 1, oral uncoated KIC 1% (control 38), p<.89) is given as 39% of Total WBC; with white blood cells (Exp. 2, IP injected KIC (saline 41), p<.13), 34% of Total WBC. Besides, the “% LYM” value is 59% of Total WBC in the data set on white blood cells (Exp. 1, oral uncoated KIC 1% (control 61), p<.34) and 61% of Total WBC in the data set on white blood cells (Exp. 2, IP injected KIC (saline 48), p<.04). The “% EOS” value is reported as 1.7% of Total WBC in the data set on white blood cells (Exp. 1, oral uncoated KIC 1% (control .7), p<.12) and 1.7% of Total WBC in the data set with white blood cells (Exp. 2, IP injected KIC (saline 3.4), p<.01).
